From ChEMBL document CHEMBL3352712, “Structural modifications of coumarin derivatives: Determination of antioxidant and lipoxygenase (LOX) inhibitory activity” (Bioorg Med Chem, 2014)

Key:
[1] = Antioxidant activity assessed as DPPH radical scavenging activity at 100 uM after 20 mins by spectrophotometry; type: physicochemical
[2] = Antioxidant activity assessed as DPPH radical scavenging activity at 100 uM after 60 mins by spectrophotometry; type: physicochemical; settings: 1 h
[3] = Antioxidant activity assessed as inhibition of AAPH-induced linoleic acid lipid peroxidation at 100 uM; type: physicochemical
[4] = target: Lipoxygenase (Glycine max) (UniProt Q39829); experiment: Inhibition of soybean LOX assessed as reduction in conversion of sodium linoleate to 13-hydroperoxylinoleic acid at 100 uM by UV spectroscopy
Lipoxygenase = Lipoxygenase (Glycine max, UniProt Q39829); experiment: Inhibition of soybean LOX assessed as reduction in conversion of sodium linoleate to 13-hydroperoxylinoleic acid by UV spectroscopy

Structure (SMILES) | inhibition (INH) [1] | inhibition (INH) [2] [%] | inhibition (INH) [3] [%] | inhibition [4] [%] | IC50 (Lipoxygenase; read-out: IC50) [µM] | IC50 (Lipoxygenase)
COc1ccc(-c2c(C)c3cc(Br)cc(Br)c3oc2=O)cc1OC | 13% | 2 | 58 |  |  | 
COc1ccc(-c2c(C)c3cc(-c4ccc(C=O)cc4)ccc3oc2=O)cc1OC | 11% | 68 | 64 | 1 |  | 
CC(C)=CCOc1ccc(-c2c(C)c3cc(Br)ccc3oc2=O)cc1OCC=C(C)C | 67% | 68 | 92 |  | 75 | 
Cc1c(-c2ccc(O)c(O)c2)c(=O)oc2ccc(Br)cc12 | 77% | 62 | 75 |  | 75 | 
CC(C)=CCOc1ccc(-c2c(C)c3cc(Br)cc(Br)c3oc2=O)cc1OCC=C(C)C | Not Active | 9 | 100 |  | 37 | 
CC(Cc1ccc(O)c(O)c1)C(C)Cc1ccc(O)c(O)c1 (configuration not stated) [NORDIHYDROGUAIARETIC ACID] | 84% | 83 |  |  | 51 | 
Cc1c(-c2ccc(O)c(O)c2)c(=O)oc2c(Br)cc(Br)cc12 | 76% | 78 | 75 | 7 |  | 
COc1ccc(-c2c(C)c3ccccc3o/c2=N/Nc2ccccc2)cc1 | 84% | 85 | 47 |  |  | Not Active
COc1ccc(-c2cc3cc(Br)ccc3oc2=O)cc1OC | 11% | 12 | 56 |  | 81 | 
Cc1c(-c2ccc(O)c(O)c2)c(=S)oc2ccc(Br)cc12 | 41% | 35 | 59 |  | 90 | 
O=c1oc2ccc(Br)cc2cc1-c1ccc(O)c(O)c1 | 78% | 80 | 26 | 26 |  | 
COc1ccc(-c2ccc3oc(=O)c(-c4ccc(OC)c(OC)c4)c(C)c3c2)cc1 | 17% | 7 | 7 | 44 |  | 
COc1ccc(-c2c(C)c3ccccc3oc2=S)cc1 | 14% | 11 | 11 | 35 |  | 
Cc1c(C)c2c(c(C)c1O)CCC(C)(C(=O)O)O2 (configuration not stated) [TROLOX] |  |  | 63 |  |  | 
CC(C)=CCOc1ccc(-c2cc3cc(Br)ccc3oc2=O)cc1OCC=C(C)C | Not Active | 5 | 99 |  | 40 | 
COc1ccc(-c2c(C)c3cc(Br)ccc3oc2=S)cc1OC | 26% | 21 | 96 |  | 65 | 
COc1ccc(-c2c(C)c3cc(Cl)ccc3oc2=S)cc1OC | Not Active | 9 | 50 |  |  | Not Active
COc1ccc(-c2c(C)c3cc(Br)ccc3o/c2=N/Nc2ccccc2)cc1OC | 85% | 86 | 55 | 28 |  | 
